Test results reported in patent US7557066B2, “Use of sulfonylureas” (Bayer CropScience AG, priority 2004, dated 2009).

What was measured:
CIRAR = experiment: Inhibition of revegetation of perennial plants; format: in vivo; conditions: 600 g of a.i./ha; cut four weeks after application, scored after a further four weeks; 100% = total inhibition
Text: (§1) […] Four weeks after the application, the above-ground parts of the plants were cut off. After a further four weeks, the inhibition of revegetation was scored in percent of the control, 100% corresponding to a total inhibition of revegetation.

LOLPE = experiment: Inhibition of revegetation of perennial plants; format: in vivo; conditions: 600 g of a.i./ha; cut four weeks after application, scored after a further four weeks; 100% = total inhibition
Text: as §1

[1] = system: monocotyledonous and dicotyledonous weed plants; experiment: Pre-emergence effect on weeds (greenhouse, visual scoring); format: in vivo, weed grasses and broad-leaved weeds; conditions: 100 g or less of active substance per hectare; against Sinapsis alba, Chrysanthemum segetum, Avena sativa, Stellaria media, Echinochloa crus-galli, Lolium multiflorum, Setaria viridis, Abutilon theophrasti, Amaranthus retroflexus, Brachiaria plantaginea, Solanum nigrum, Euphorbia heterophylla, Sorghum halepense, Panicum miliaceum; scored after 3 to 4 weeks
Text: Seeds or rhizome pieces of monocotyledonous and dicotyledonous weed plants were placed in sandy loam soil in cardboard pots and covered with soil. The compounds of the formula (I) or their salts, formulated in the form of wettable powders or emulsion concentrates, were then applied to the surface of the soil cover in the form of aqueous suspensions or emulsions at an application rate of 600 to 800 l of water/ha (converted) in various dosages.
After the treatment, the pots were placed in a greenhouse and kept under good growth conditions for the weeds. After the test plants had emerged, the damage to the plants or the negative effect on the emergence was scored visually after a test period of 3 to 4 weeks by comparison with untreated controls. As shown by the test results, the compounds tested have good herbicidal pre-emergence activity against a broad spectrum of weed grasses and broad-leaved weeds. […] Post-Emergence Effect on Weeds

[2] = system: monocotyledonous and dicotyledonous weeds; experiment: Post-emergence effect on weeds (greenhouse, visual scoring); format: in vivo, weed grasses and broad-leaved weeds; conditions: 100 g or less of active substance per hectare; against Sinapsis alba, Echinochloa crus-galli, Lolium multiflorum, Chrysanthemum segetum, Setaria viridis, Abutilon theophrasti, Amaranthus retroflexus, Panicum miliaceum, Brachiaria plantaginea, Solanum nigrum, Euphorbia heterophylla, Sorghum halepense, Avena sativa; scored after about 3 to 4 weeks
Method: (§2) Seeds or rhizome pieces of monocotyledonous and dicotyledonous weeds were placed in a sandy loam soil in plastic pots, covered with soil and cultivated in a greenhouse under good growth conditions. Three weeks after sowing, the test plants were treated at the three-leaf stage. The compounds of the formula (I) or their salts, formulated as wettable powders or as emulsion concentrates, were sprayed, at various dosages, onto the green parts of the plants at an application rate of 600 to 800 l of water/ha (converted). After the test plants had remained in the greenhouse for about 3 to 4 weeks under optimum growth conditions, the effect of the preparations was scored visually by comparison with untreated controls. The tested compounds also have good herbicidal post-emergence activity against a broad spectrum of economically important weed grasses and broad-leaved weeds. […] Crop Plant Compatibility

soybeans (Glycine max.) = experiment: Crop plant compatibility (greenhouse, visual scoring); format: in vivo; conditions: for damage to crops of leguminous plants, such as soybeans: pre-emergence or post-emergence method, various dosages, visual scoring four to five weeks after application
Method: In further greenhouse experiments, seeds of a substantial number of crop plants and weeds were placed into sandy loam soil and covered with soil. Some of the pots were treated immediately as described under Section 1, and the remaining pots were placed in a greenhouse until the plants had developed two to three true leaves and then sprayed with various dosages of the compounds of the formula (I) or salts thereof, as described in Section 2.

Amaranthus retroflexus = experiment: Post-emergence effect on weeds; format: in vivo; conditions: 30 g of active substance per hectare
Method: as §2

Brachiaria plantaginea = experiment: Post-emergence effect on weeds; format: in vivo; conditions: 30 g of active substance per hectare
Method: as §2

Echinochloa crus-galli = experiment: Post-emergence effect on weeds; format: in vivo; conditions: 30 g of active substance per hectare
Method: as §2

Setaria viridis = experiment: Post-emergence effect on weeds; format: in vivo; conditions: 30 g of active substance per hectare
Method: as §2

Solanum nigrum = experiment: Post-emergence effect on weeds; format: in vivo; conditions: 30 g of active substance per hectare
Method: as §2

SMILES | herbicidal action in the pre-emergence method [1] | herbicidal action by the post-emergence method [2] | damage to crops of leguminous plants, such as soybeans (soybeans (Glycine max.)) | other results
O=C(O)CNCP(=O)(O)O [Glyphosate] | – | – | – | inhibition of revegetation, CIRAR (CIRAR): 25%; inhibition of revegetation, LOLPE (LOLPE): 35%
CCOc1cc(OC)nc(NC(=O)NS(=O)(=O)c2ncccc2C2=NOCCO2)n1 [I-1] | very good herbicidal action | very good herbicidal action | did not damage | –
COc1cc(C)nc(NC(=O)[N-]S(=O)(=O)c2ncccc2C2=NOCCO2)n1.[Na+] [I-3] | very good herbicidal action | very good herbicidal action | did not damage | –
COc1cc(N(C)C)nc(NC(=O)NS(=O)(=O)c2ncccc2C2=NOCCO2)n1 [I-8] | very good herbicidal action | very good herbicidal action | did not damage | –
COc1cc(Cl)nc(NC(=O)NS(=O)(=O)c2ncccc2C2=NOCCO2)n1 [I-9] | very good herbicidal action | very good herbicidal action | did not damage | herbicidal activity against Amaranthus retroflexus (Amaranthus retroflexus): 93%; herbicidal activity against Brachiaria plantaginea (Brachiaria plantaginea): 100%; herbicidal activity against Echinochloa crus-galli (Echinochloa crus-galli): 100%; herbicidal activity against Setaria viridis (Setaria viridis): 100%; herbicidal activity against Solarium nigrum (Solanum nigrum): 100%; damage to soybeans (Glycine max.) (soybeans (Glycine max.); 8 g of active substance per hectare): 0%
COc1cc(Cl)nc(NC(=O)[N-]S(=O)(=O)c2ncccc2C2=NOCCO2)n1.[Na+] [I-10] | very good herbicidal action | very good herbicidal action | did not damage | –
COc1cc(OC)nc(NC(=O)NS(=O)(=O)c2ncccc2C2=NOCCO2)n1 [I-11] | very good herbicidal action | very good herbicidal action | did not damage | –
COc1cc(OC)nc(NC(=O)[N-]S(=O)(=O)c2ncccc2C2=NOCCO2)n1.[Na+] [I-12] | very good herbicidal action | very good herbicidal action | did not damage | –
CCOc1cc(OCC)nc(NC(=O)[N-]S(=O)(=O)c2ncccc2C2=NOCCO2)n1.[Na+] [I-14] | very good herbicidal action | very good herbicidal action | did not damage | –
CCOc1cc(Cl)nc(NC(=O)NS(=O)(=O)c2ncccc2C2=NOCCO2)n1 [I-21] | very good herbicidal action | very good herbicidal action | did not damage | –
CCOc1cc(Cl)nc(NC(=O)[N-]S(=O)(=O)c2ncccc2C2=NOCCO2)n1.[Na+] [I-22] | very good herbicidal action | very good herbicidal action | did not damage | –
Cc1cc(C)nc(NC(=O)NS(=O)(=O)c2ncccc2C2=NOCCO2)n1 [I-23] | very good herbicidal action | very good herbicidal action | did not damage | –
Cc1cc(Cl)nc(NC(=O)NS(=O)(=O)c2ncccc2C2=NOCCO2)n1 [I-29] | very good herbicidal action | very good herbicidal action | did not damage | –
Cc1cc(Cl)nc(NC(=O)[N-]S(=O)(=O)c2ncccc2C2=NOCCO2)n1.[Na+] [I-30] | very good herbicidal action | very good herbicidal action | did not damage | –
COc1nc(NC(=O)NS(=O)(=O)c2ncccc2C2=NOCCO2)nc(OC)n1 [I-51] | very good herbicidal action | very good herbicidal action | did not damage | –
COc1nc(NC(=O)[N-]S(=O)(=O)c2ncccc2C2=NOCCO2)nc(OC)n1.[Na+] [I-52] | very good herbicidal action | very good herbicidal action | did not damage | –
COc1nc(NC(=O)[N-]S(=O)(=O)c2ncccc2C2=NOCCO2)nc(N(C)C)n1.[Na+] [I-60] | very good herbicidal action | very good herbicidal action | did not damage | –
CCOc1nc(Cl)nc(NC(=O)[N-]S(=O)(=O)c2ncccc2C2=NOCCO2)n1.[Na+] [I-70] | very good herbicidal action | very good herbicidal action | did not damage | –
CN(C)c1nc(NC(=O)NS(=O)(=O)c2ncccc2C2=NOCCO2)nc(OCC(F)(F)F)n1 [I-142] | very good herbicidal action | very good herbicidal action | did not damage | –
O=C(Nc1nc(Cl)cc(OCC(F)(F)F)n1)NS(=O)(=O)c1ncccc1C1=NOCCO1 [I-143] | very good herbicidal action | very good herbicidal action | did not damage | –
O=C([N-]S(=O)(=O)c1ncccc1C1=NOCCO1)Nc1nc(Cl)cc(OCC(F)(F)F)n1.[Na+] [I-145] | very good herbicidal action | very good herbicidal action | did not damage | –
